This experiment deals with T1, Met kinase (Homo sapiens, UniProt P08581).
T1 construct: 6His (N); purchased Upstate 14-526; host or cells: Sf21 insect cells (S. frugiperda), baculovirus
T1 sequence (P08581 974-1390 limits assumed): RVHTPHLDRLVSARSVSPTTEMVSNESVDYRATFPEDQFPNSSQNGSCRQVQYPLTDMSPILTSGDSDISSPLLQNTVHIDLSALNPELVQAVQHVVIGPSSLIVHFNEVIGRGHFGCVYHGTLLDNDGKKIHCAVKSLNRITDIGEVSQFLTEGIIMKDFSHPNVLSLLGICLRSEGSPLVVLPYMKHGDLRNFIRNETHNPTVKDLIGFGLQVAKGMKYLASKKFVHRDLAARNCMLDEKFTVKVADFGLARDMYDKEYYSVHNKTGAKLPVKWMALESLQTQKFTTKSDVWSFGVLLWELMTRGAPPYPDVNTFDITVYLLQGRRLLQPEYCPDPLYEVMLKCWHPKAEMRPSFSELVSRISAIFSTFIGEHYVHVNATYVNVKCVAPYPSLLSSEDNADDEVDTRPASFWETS
The experiment in a line: Met kinase inhibition (enzyme assay), flashplate method. In kind it is biochemical. The source says: Measurement of Met Kinase Activity
According to the manufacturer's data (Met, active, upstate, catalogue No. 14-526), Met kinase is expressed for the purposes of protein production in insect cells (Sf21; S. frugiperda) and subsequent affinity-chromatographic purification as “N-terminal 6His-tagged” recombinant human protein in a baculovirus expression vector.
The kinase activity can be measured using various available measurement systems. In the scintillation proximity method (Sorg et al., J. of Biomolecular Screening, 2002, 7, 11-19), the flashplate method or the filter binding test, the radioactive phosphorylation of a protein or peptide as substrate is measured using radioactively labelled ATP (^32P-ATP, ^33P-ATP). In the case of the presence of an inhibitory compound, a reduced radioactive signal, or none at all, can be detected. Furthermore, homogeneous time-resolved fluorescence resonance energy transfer (HTR-FRET) and fluoroescence polarisation (FP) technologies can be used as assay methods (Sills et al., J. of Biomolecular Screening, 2002, 191-214).
Flashplate Method (Met Kinase)
The test plates used are 96-well Flashplate® microtitre plates from Perkin Elmer (Cat. No. SMP200). The components of the kinase reaction described below are pipetted into the assay plate. The Met kinase and the substrate poly Ala-Glu-Lys-Tyr, (pAGLT, 6:2:5:1), are incubated for 3 hrs at room temperature with radioactively labelled ^33P-ATP in the presence and absence of test substances in a total volume of 100 μl. The reaction is terminated using 150 μl of a 60 mM EDTA solution. After incubation for a further 30 min at room temperature, the supernatants are filtered off with suction, and the wells are washed three times with 200 μl of 0.9% NaCl solution each time. The measurement of the bound radioactivity is carried out by means of a scintillation measuring instrument (Topcount NXT, Perkin-Elmer).
The full value used is the inhibitor-free kinase reaction. This should be approximately in the range 6000-9000 cpm. The pharmacological zero value used is staurosporin in a final concentration of 0.1 mM. The inhibitory values (IC50) are determined using the RS1_MTS program.
Kinase reaction conditions per well: • 30 μl of assay buffer • 10 μl of substance to be tested in assay buffer with 10% of DMSO • 10 μl of ATP (final concentration 1 μM cold, 0.35 μCi of ^33P-ATP) • 50 μl of Met kinase/substrate mixture in assay buffer; • (10 ng of enzyme/well, 50 ng of pAGLT/well)
50 mM HEPES • 3 mM magnesium chloride • 3 μM sodium orthovanadate • 3 mM manganese(II) chloride • 1 mM dithiothreitol (DTT)
pH=7.5 (to be set using sodium hydroxide)
60 mM Titriplex III (EDTA)
Met kinase: Upstate, Cat. No. 14-526, Stock 1 μg/10 μl; spec. activity 954 U/mg;
Poly-Ala-Glu-Lys-Tyr, 6:2:5:1: Sigma Cat. No. P1152
Pharmacological Data Met Kinase Inhibitions (Enzyme Assay)
`CCOC(=O)Nc1cccc(Cn2nc(-c3ccc(CC(=O)NCCCN)cc3)ccc2=O)c1` [A148] showed an IC50 of 10 to 1000 nM.
Next, `CCOC(=O)Nc1cccc(Cn2nc(-c3ccc(CNC(=O)CCN(C)C)cc3)ccc2=O)c1` [A83]: 10 to 1000 nM.
Next, `CCOC(=O)Nc1cccc(Cn2nc(-c3cccc(CNC(=O)Cc4nnn[nH]4)c3)ccc2=O)c1` [A96]: 10 to 1000 nM.
Regarding `CCOC(=O)Nc1cccc(Cn2nc(-c3cccc(C(=O)NCCCN(C)C)c3)ccc2=O)c1` [A47], the IC50 was 10 to 1000 nM.
In turn, `CCOC(=O)CNC(=O)c1ccc(-c2ccc(=O)n(Cc3cccc(NC(=O)OCC)c3)n2)cc1` [A8] gave a 50% inhibitory concentration (IC50) of 10 to 1000 nM.
`CCOC(=O)Nc1cccc(Cn2nc(-c3ccc(CC(N)=O)cc3)ccc2=O)c1` [A57] yielded a 50% inhibitory concentration (IC50) of 10 to 1000 nM.
In the case of `CCOC(=O)Nc1cccc(Cn2nc(-c3cccc(CC(=O)NCCCCN(C)C)c3)ccc2=O)c1` [A63] it was 10 to 1000 nM; in that of `CCOC(=O)Nc1cccc(Cn2nc(-c3ccc(C(=O)NCCCCN(C)C)cc3)ccc2=O)c1` [A11], 10 to 1000 nM.
Next, `CCOC(=O)Nc1cccc(Cn2nc(-c3ccc(C(=O)NCCN(C)C)cc3)ccc2=O)c1` [A15]: 10 to 1000 nM.
Next, `CCOC(=O)Nc1cccc(Cn2nc(-c3cccc(CNC(=O)CN)c3)ccc2=O)c1` [A133]: 10 to 1000 nM; `CCOC(=O)Nc1cccc(Cn2nc(-c3cccc(C(=O)NCCNC(=O)OC(C)(C)C)c3)ccc2=O)c1` [A45]: 10 to 1000 nM.
For `CCOC(=O)Nc1cccc(Cn2nc(-c3ccc(C(=O)NCCCN4CCCCC4)cc3)ccc2=O)c1` [A26], the IC50 lay within 10 to 1000 nM.
`CCOC(=O)Nc1cccc(Cn2nc(-c3cccc(CNC(=O)CCOC)c3)ccc2=O)c1` [A100]: the 50% inhibitory concentration (IC50) lay in the range of 10 to 1000 nM.
On to `CCOC(=O)Nc1cccc(Cn2nc(-c3cccc(CNC(=O)COC)c3)ccc2=O)c1` [A99], for which the IC50 fell in the range of 10 to 1000 nM.
In turn, `CCOC(=O)Nc1cccc(Cn2nc(-c3ccc(C(=O)NCCCN(C)C)cc3)ccc2=O)c1` [A14] displayed a half-maximal inhibitory concentration (IC50) of 10 to 1000 nM.
Next, `CCOC(=O)Nc1cccc(Cn2nc(-c3cccc(CC(=O)NCCNC(=O)OC(C)(C)C)c3)ccc2=O)c1` [A62]: 10 to 1000 nM; `CCOC(=O)Nc1cccc(Cn2nc(-c3ccc(CNC(=O)CN4CCOCC4)cc3)ccc2=O)c1` [A82]: 10 to 1000 nM; `CCOC(=O)Nc1cccc(Cn2nc(-c3ccc(C(=O)NCCNC(C)C)cc3)ccc2=O)c1` [A21]: 10 to 1000 nM.
On to `CCOC(=O)Nc1cccc(Cn2nc(-c3cccc(C(=O)NCCN(C)C)c3)ccc2=O)c1` [A48], for which the 50% inhibitory concentration (IC50) fell in the range of 10 to 1000 nM.
In the case of `CCOC(=O)Nc1cccc(Cn2nc(-c3cccc(C(=O)NCCCNC(=O)OC(C)(C)C)c3)ccc2=O)c1` [A44] it was 10 to 1000 nM.
Consider `CCOC(=O)Nc1cccc(Cn2nc(-c3ccc(C(=O)NCCCCN)cc3)ccc2=O)c1` [A129, ethyl(3-{3-[4-(4-aminobutylcarbamoyl)phenyl]-6-oxo-6H-pyridazin-1-ylmethyl}phenyl)carbamate], for which the half-maximal inhibitory concentration (IC50) was 10 to 1000 nM.
In turn, `CCOC(=O)Nc1cccc(Cn2nc(-c3ccc(C(=O)NCCCN4CCOCC4)cc3)ccc2=O)c1` [A27] returned an IC50 of 10 to 1000 nM.
As to `CCOC(=O)Nc1cccc(Cn2nc(-c3cccc(CNC(=O)CCN4CCN(C(=O)OC(C)(C)C)CC4)c3)ccc2=O)c1` [A108], the IC50 lay in the range of 10 to 1000 nM.
For `CCOC(=O)Nc1cccc(Cn2nc(-c3ccc(C(=O)NCCCCN4CCCC4)cc3)ccc2=O)c1` [A28], the 50% inhibitory concentration (IC50) fell in the range of 10 to 1000 nM.
In the case of `CCOC(=O)Nc1cccc(Cn2nc(-c3ccc(CNC(=O)CNC(C)=O)cc3)ccc2=O)c1` [A75, ethyl[3-(3-{4-[(2-acetylaminoacetylamino)methyl]phenyl}-6-oxo-6H-pyridazin-1-ylmethyl)phenyl]carbamate], the half-inhibitory concentration (IC50) was in the range of 10 to 1000 nM.
Next, `CCOC(=O)Nc1cccc(Cn2nc(-c3cccc(CC(N)=O)c3)ccc2=O)c1` [A69]: 10 to 1000 nM; `CCOC(=O)Nc1cccc(Cn2nc(-c3cccc(C(=O)NCCCN)c3)ccc2=O)c1` [A137]: 10 to 1000 nM; `CCOC(=O)Nc1cccc(Cn2nc(-c3ccc(CC(=O)NCCCCN(C)C)cc3)ccc2=O)c1` [A56]: 10 to 1000 nM.
In the case of `CCOC(=O)Nc1cccc(Cn2nc(-c3cccc(CNC(=O)CN4CCNCC4)c3)ccc2=O)c1` [A144], the concentration for half-maximal inhibition (IC50) lay in the range of 10 to 1000 nM.
As to `CCOC(=O)Nc1cccc(Cn2nc(-c3cccc(CNC(=O)CNC(C)=O)c3)ccc2=O)c1` [A93], the 50% inhibitory concentration (IC50) fell in the range of 10 to 1000 nM.
Next, `CCOC(=O)Nc1cccc(Cn2nc(-c3cccc(CNC(=O)CCO)c3)ccc2=O)c1` [A105]: 10 to 1000 nM; `CCOC(=O)Nc1cccc(Cn2nc(-c3cccc(CNC(=O)CCN4CCNCC4)c3)ccc2=O)c1` [A145]: 10 to 1000 nM; `CCOC(=O)Nc1cccc(Cn2nc(-c3ccc(CNC(=O)Cn4ccccc4=O)cc3)ccc2=O)c1` [A76]: 10 to 1000 nM.
With `CCOC(=O)Nc1cccc(Cn2nc(-c3ccc(C(=O)NCCO)cc3)ccc2=O)c1` [A2, ethyl(3-{3-[4-(2-hydroxyethylcarbamoyl)phenyl]-6-oxo-6H-pyridazin-1-ylmethyl}phenyl)carbamate], the IC50 was 10 to 1000 nM.
In turn, `CCOC(=O)Nc1cccc(Cn2nc(-c3cccc(CNC(=O)CCN4CCCCC4)c3)ccc2=O)c1` [A109] showed a concentration for half-maximal inhibition (IC50) of 10 to 1000 nM.
In turn, `CCOC(=O)Nc1cccc(Cn2nc(-c3cccc(CNC(=O)CN4CCN(C)CC4)c3)ccc2=O)c1` [A106] displayed a concentration for half-maximal inhibition (IC50) of 10 to 1000 nM.
Consider `CCOC(=O)Nc1cccc(Cn2nc(-c3cccc(CC(=O)NCCCNC(=O)OC(C)(C)C)c3)ccc2=O)c1` [A61], for which the IC50 was in the range of 10 to 1000 nM.
`CCOC(=O)Nc1cccc(Cn2nc(-c3ccc(-c4noc(C)n4)cc3)ccc2=O)c1` [A163, ethyl(3-{3-[4-(5-methyl-1,2,4-oxadiazol-3-yl)phenyl]-6-oxo-6H-pyridazin-1-ylmethyl}phenyl)carbamate] came in with an IC50 of 10 to 1000 nM.
Compound `CCOC(=O)Nc1cccc(Cn2nc(-c3ccc(C(=O)NCCN(CC)CC)cc3)ccc2=O)c1` [A20] showed an IC50 of 10 to 1000 nM.
`CCOC(=O)Nc1cccc(Cn2nc(-c3ccc(C(=O)NCC(O)CO)cc3)ccc2=O)c1` (centres unmarked) [A6] returned a 50% inhibitory concentration (IC50) of 10 to 1000 nM.
Turning to `CCOC(=O)Nc1cccc(Cn2nc(-c3ccc(CNC(=O)CCOC)cc3)ccc2=O)c1` [A84], the IC50 was 10 to 1000 nM.
Compound `CCOC(=O)Nc1cccc(Cn2nc(-c3ccc(CC(=O)NCCCCN)cc3)ccc2=O)c1` [A146] registered an IC50 of 10 to 1000 nM.
In turn, `CCOC(=O)Nc1cccc(Cn2nc(-c3cccc(C(=O)NCCCCN(C)C)c3)ccc2=O)c1` [A46] returned an IC50 of 10 to 1000 nM.
The compound `CCOC(=O)Nc1cccc(Cn2nc(-c3cccc(C(=O)NCCOC)c3)ccc2=O)c1` [A50] came in with an IC50 of 10 to 1000 nM.
In the case of `CCOC(=O)Nc1cccc(Cn2nc(-c3ccc(CC(=O)NCCN)cc3)ccc2=O)c1` [A147] it was 10 to 1000 nM.
With `CCOC(=O)Nc1cccc(Cn2nc(-c3ccc(C(=O)NCCOC)cc3)ccc2=O)c1` [A3], the concentration for half-maximal inhibition (IC50) is 10 to 1000 nM.
The compound `CCOC(=O)Nc1cccc(Cn2nc(-c3ccc(C(=O)NCCS(C)(=O)=O)cc3)ccc2=O)c1` [A7] yielded an IC50 of 10 to 1000 nM.
In turn, `CCOC(=O)Nc1cccc(Cn2nc(-c3cccc(CNC(=O)CO)c3)ccc2=O)c1` [A101] displayed an IC50 of 10 to 1000 nM.
`CCOC(=O)Nc1cccc(Cn2nc(-c3ccc(C(=O)NCCCN4CCN(C)CC4)cc3)ccc2=O)c1` [A22]: the IC50 lay in the range of 10 to 1000 nM.
Compound `CCOC(=O)Nc1cccc(Cn2nc(-c3ccc(C(=O)NCCCO)cc3)ccc2=O)c1` [A5] displayed an IC50 of 10 to 1000 nM.
`CCOC(=O)Nc1cccc(Cn2nc(-c3ccc(CNC(=O)CCN)cc3)ccc2=O)c1` [A131] had an IC50 of 10 to 1000 nM.
With `CCOC(=O)Nc1cccc(Cn2nc(-c3cccc(CNC(=O)CCN(C)C)c3)ccc2=O)c1` [A103], the half-maximal inhibitory concentration (IC50) was in the range of 10 to 1000 nM.
For the compound `CCOC(=O)CCNC(=O)c1ccc(-c2ccc(=O)n(Cc3cccc(NC(=O)OCC)c3)n2)cc1` [A13], the IC50 is 10 to 1000 nM.
Compound `CCOC(=O)Nc1cccc(Cn2nc(-c3ccc(C(=O)NCCCCO)cc3)ccc2=O)c1` [A42] displayed an IC50 of 10 to 1000 nM.
In the case of `CCOC(=O)Nc1cccc(Cn2nc(-c3cccc(CNC(=O)CNC(=O)OC(C)(C)C)c3)ccc2=O)c1` [A97] it was 10 to 1000 nM; in that of `CCOC(=O)Nc1cccc(Cn2nc(-c3ccc(CNC(=O)CCN4CCCCC4)cc3)ccc2=O)c1` [A87], 10 to 1000 nM.

The values are drawn from patent US8367668B2, “Pyridazinone derivatives” (Merck Patent Gesellschaft mit Beschränkter Haftung, priority 2007, dated 2013).
